Reference: patent US20190170731A1, “METHOD TO MEASURE RELATIVE UTILIZATION OF AEROBIC GLYCOLYSIS BY POSITIONAL ISOTOPIC DISCRIMINATION” (priority 2016, published 2019)

Columns and labels:
Type in all cases: cell-based
MDA-MB-453 = experiment: 2-NBDG glucose uptake assay; details: MDA-MB-453, 100 nM insulin for 45 minutes, 30 μg/mL 2-NBDG
Procedure: (§1) FIG. 2. […] Sub-confluent cells were serum-starved overnight. Cells were then washed with PBS and cell culture medium was replaced with glucose- and serum-free medium. Fluorescently-tagged 2-NBDG (Cayman Chemical) was then added at a concentration of 30 μg/mL for 30 minutes. After addition of 2-NBDG, cells were treated with 100 nM insulin for another 45 minutes. Glucose uptake was then measured as described hereinbelow. The graph represents the averages of 2-NBDG glucose uptake ±SEM from 3 individual experiments (p<0.05).
(§2) Glucose uptake was analyzed using a 2-NBDG (2-deoxy-2-[(7-nitro-2,1,3-benzoxadiazol-4-yl)amino]-D-glucose, a fluorescently labeled 2-deoxyglucose) glucose uptake kit from Cayman Chemical. Briefly, cells were plated at 200,000 cells/well in a 24-well plate and allowed to grow to sub-confluency. Cells were then serum starved overnight. The next morning, cells were incubated in serum- and glucose-free medium for 30 minutes. Cells were then incubated with 30 μg/mL 2-NBDG for another 30 minutes. After incubation, cells were treated with 100 nM insulin for 45 minutes. Cells were then transferred to a clear-bottom black 96 cell plate. The plate was subjected to centrifugation at 400×g for 5 minutes. […] Signal intensity was measured with a Synergy 2 (BioTek) microplate reader at excitation/emission=485/535 nm.

MDA-MB-231 = experiment: 2-NBDG glucose uptake assay; details: MDA-MB-231, 100 nM insulin for 45 minutes, 30 μg/mL 2-NBDG
Procedure: as §1, §2

MDA-MB-231 cells = experiment: [1-13C]glucose labeling and LC-MS measurement of relative glycolysis rate; details: 10 μM KU-55933, MDA-MB-231 cells, 10 mM D-[1-13C]-glucose; samples at 1, 3 and 6 hours of labeling (as well as 9 hours, p<0.05)
Procedure: FIGS. 7A-B. A) Sub-confluent MDA-MB-231 cells were serum-starved overnight. Cells were washed with PBS and were then pre-treated with 10 μM KU-55933 (Halaby et al., 2008) for 30 minutes in the glucose- and serum-free medium. Fluorescently-tagged 2-NBDG (30 μg/ml) was then added for 30 minutes. Cells were treated with 100 nM insulin for another 45 minutes. Glucose Uptake was then measured following the manufacturer's instructions (Cayman Chemical). B) MDA-MB-231 cells were cultured in DMEM containing 10% FBS. After reaching […] confluent, cells were serum-starved overnight. Cells were then washed with PBS and incubated in serum- and glucose/pyruvate-free DMEM for 90 minutes. The labeling was initiated after replacing the medium with fresh serum- and glucose/pyruvate-free DMEM supplemented with 10 mM D-[1-^13C]-glucose ±10 μM KU-55933. […] 40 μL of medium was taken and diluted with 160 μL of methanol to precipitate the proteins. For LC-MS analysis, 2 μL of the supernatant were injected and analyzed with the Q-Exactive mass spec. The bar graph represents the average relative glycolysis rate ±SEM from 3 individual experiments (*p<0.05). […] These breast cancer cells were grown in DMEM supplemented with antibiotics and 10% fetal bovine serum. […] The relative rate of glycolysis for each cancer cell line was measured by the incorporation of [1-^13C]glucose into [3-^13C]lactate. […]

Row | Molecule | glucose uptake (2-NBDG) in response to insulin stimulation (MDA-MB-453) | glucose uptake (2-NBDG) in response to insulin stimulation (MDA-MB-231) | relative glycolysis rate ([1-13C]glucose to [3-13C]lactate) (MDA-MB-231 cells)
1 | insulin | enhanced glucose uptake | enhanced glucose uptake | 
2 | O=c1cc(-c2cccc3c2Sc2ccccc2S3)oc(N2CCOCC2)c1 [KU-55933] |  |  | significant inhibition of glycolysis rate
